Consider one compound from PMC8755628 (Pharmacological research, 2021).

In this test the target is MET (Homo sapiens, UniProt P08581). In words: MET kinase assay. The test is classed as biochemical.
Chain of MET (P08581 25-307): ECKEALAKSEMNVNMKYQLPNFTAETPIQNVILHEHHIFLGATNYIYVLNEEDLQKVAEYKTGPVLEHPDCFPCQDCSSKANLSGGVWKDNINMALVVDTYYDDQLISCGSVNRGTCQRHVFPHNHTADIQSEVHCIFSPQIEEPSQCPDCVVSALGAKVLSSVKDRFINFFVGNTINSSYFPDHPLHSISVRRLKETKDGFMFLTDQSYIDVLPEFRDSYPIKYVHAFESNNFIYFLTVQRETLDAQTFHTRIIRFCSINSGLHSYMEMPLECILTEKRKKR
Chain of MET (P08581 308-1390): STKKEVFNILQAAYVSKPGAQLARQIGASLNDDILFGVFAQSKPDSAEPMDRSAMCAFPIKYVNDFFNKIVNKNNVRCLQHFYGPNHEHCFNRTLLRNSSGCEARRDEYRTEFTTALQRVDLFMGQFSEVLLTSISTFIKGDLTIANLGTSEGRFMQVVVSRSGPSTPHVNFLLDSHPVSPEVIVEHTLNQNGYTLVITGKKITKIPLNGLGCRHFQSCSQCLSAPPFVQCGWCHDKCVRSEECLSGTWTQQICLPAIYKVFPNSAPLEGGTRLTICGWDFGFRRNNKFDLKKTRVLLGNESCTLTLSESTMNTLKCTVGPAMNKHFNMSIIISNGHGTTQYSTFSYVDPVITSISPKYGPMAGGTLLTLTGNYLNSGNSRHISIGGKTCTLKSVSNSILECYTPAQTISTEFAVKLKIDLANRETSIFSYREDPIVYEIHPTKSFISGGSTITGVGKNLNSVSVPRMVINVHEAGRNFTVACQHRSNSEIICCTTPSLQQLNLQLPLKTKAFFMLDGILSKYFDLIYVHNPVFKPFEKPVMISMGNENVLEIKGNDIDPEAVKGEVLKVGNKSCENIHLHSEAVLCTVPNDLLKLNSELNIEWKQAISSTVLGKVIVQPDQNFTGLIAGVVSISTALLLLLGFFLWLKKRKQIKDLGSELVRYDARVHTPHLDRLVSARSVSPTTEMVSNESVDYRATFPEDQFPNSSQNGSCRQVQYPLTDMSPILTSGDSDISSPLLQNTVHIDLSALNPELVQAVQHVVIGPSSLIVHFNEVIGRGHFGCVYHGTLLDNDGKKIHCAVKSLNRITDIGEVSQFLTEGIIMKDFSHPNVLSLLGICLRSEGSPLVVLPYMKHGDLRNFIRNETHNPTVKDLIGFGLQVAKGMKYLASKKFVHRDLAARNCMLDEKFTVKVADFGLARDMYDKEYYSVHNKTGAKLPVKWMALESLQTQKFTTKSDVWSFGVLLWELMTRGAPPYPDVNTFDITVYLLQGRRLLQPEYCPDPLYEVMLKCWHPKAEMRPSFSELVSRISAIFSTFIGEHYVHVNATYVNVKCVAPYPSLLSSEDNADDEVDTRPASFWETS

The compound `COc1ccc2cc3[n+](cc2c1OC)CCc1cc2c(cc1-3)OCO2` [BBR, Berberine] had an IC50 of 19.6 µM.

As a reminder, the IC50 is the point on the concentration scale where inhibition reaches its midpoint. The low end stands for greater potency, the high end for weaker potency.
